From patent EP4806904A1, “POLYPEPTIDE AND USE THEREOF” (Sichuan Gooddoctor Panxi Pharmaceutical Co. Ltd, priority 2023, dated 2026)
Where a SMILES comes first, the peptide text is derived from it. [ ]: non-standard residue; d: D form.

Legend:
[1] = test system: neural stem cell line C17.2; experiment: Proliferation of neural stem cell line C17.2, BrdU, high-content imaging; format: cell-based; details: 100 µg/mL, 48 h; for Proliferation-promoting results: percentage of BrdU-positive cells, significance vs blank control group; for number of BrdU positive cells: vs blank control group, in words
Method: • (1) C17.2 cells were seeded in 96-well plates at a concentration of 1500 cells/100 µL/well. After overnight culture for cell adherence, the cells were treated with drugs; • (2) Drug treatment was applied. The final concentration of the polypeptide of the invention was 100 µg/mL. Meanwhile, butylphthalide (NBP, 5 µM) was set as the positive control. The cells were cultured in the incubator for another 48 h; • (3) BrdU was added at 44 h of treatment to a final concentration of 10 µM. Immunofluorescence staining was performed 4 h later, and the percentage of BrdU-positive cells was statistically analyzed using a high-content cell imaging analysis system.

[2] = test system: primary neural stem cells (NSCs); experiment: Differentiation of primary neural stem cells, βIII-tubulin fluorescence and Neurite Outgrowth Assay; format: cell-based, SD rats; details: 100 µg/mL; for neurite outgrowth (total neurite length, maximum neurite length, neurite terminals, neurite initiation points) / Longest neurite length / Total neurite length / Neurite initiation points (branches) / mean fluorescence intensity of the neuronal marker protein βIII-tubulin / Number of neurite terminals / Average fluorescence intensity: 4 days; for neurite outgrowth (total neurite length, maximum neurite length, neurite terminals, neurite initiation points): Neurite Outgrowth Assay; for neurite outgrowth (total neurite length, maximum neurite length, neurite terminals, neurite initiation points) / mean fluorescence intensity of the neuronal marker protein βIII-tubulin: in words; for Longest neurite length / Total neurite length / Neurite initiation points (branches) / Number of neurite terminals / Average fluorescence intensity: significance vs blank control group; for mean fluorescence intensity of the neuronal marker protein βIII-tubulin: vs blank control group; for Average fluorescence intensity: βIII-tubulin
Method: This part of the experiment requires feeding male and female rats in advance, then extracting hippocampal neural stem cells from newborn SD rats within 24 h of birth, culturing them to P3 for identification, and then using them for experiments. • (1) Extraction and culture of primary neural stem cells (NSCs) • (2) NSCs that have been passaged to P3 and have good viability were seeded in differentiation medium (2% FBS+DMEM/F12 1:1 medium) in 48-well plates with a cell concentration of 5×10^4 cells/mL per well. After overnight culture for cell adherence, the cells were treated with drugs; • (3) Drug treatment was applied. The final concentration of the polypeptide of the invention was 100 µg/mL. Meanwhile, nerve growth factor (NGF, 50 ng/mL) was set as the positive control, and the cells were cultured in the incubator for another 4 days; • (4) Immunofluorescence staining (primary antibody βIII-tubulin) was performed after 4 days of treatment. The average fluorescence intensity of βIII-tubulin was analyzed and the Neurite Outgrowth Assay was performed using a high-content cell imaging analysis system.

[3] = test system: Brain microvascular endothelial cells (BMECs) and brain microvascular smooth muscle cells (BMVSMCs); experiment: In vitro angiogenesis assay, BMEC/BMVSMC co-culture on matrigel; format: cell-based, mouse; details: 0.1 mg/L, 48 h
Method: First, mouse brain microvascular pellets were obtained by differential centrifugation. Brain microvascular endothelial cells (BMECs) and brain microvascular smooth muscle cells (BMVSMCs) were isolated by digestion with collagenase II, respectively, and cultured in a cell incubator with 5% CO2 at 37°C . Cells at passages 3-6 in good growth condition and logarithmic growth phase were selected for the in vitro angiogenesis assay.
One night before the experiment, the high-concentration matrigel was transferred from a -20°C or -80°C refrigerator to a 4°C refrigerator and allowed to thaw slowly overnight in the 4°C refrigerator. Pipette tips required for the formal experiment were sterilized in advance and pre-cooled in a 4°C refrigerator for subsequent use.
On the day of the experiment, the matrigel was added to a 96-well plate 1 h in advance and placed in a 37°C cell incubator until it solidified. Subsequently, the cells were washed 2 times with 2 mL of PBS buffer, followed by digestion with 0.25% trypsin to obtain EC and VSMC pellets, respectively, and cell counting was performed. A uniform cell suspension containing 5×10^3 BMVSMCs and 1×10^3 BMECs per well was then seeded into the 96-well plate pre-coated with the matrigel, and cultured in a 37°C, 5% CO2 cell incubator for 3 days.
During the culture period, tube formation was observed daily. The medium was changed on day 4, followed by treatment with the polypeptide of the invention at 0.1 mg/L or VEGFA at 10/15/20 ng/L for 48 h, respectively.
On day 5, the cell nuclei and live cells were labeled with Hoechst 33342 and Calcein AM, respectively. High-content brightfield and fluorescence imaging were then performed using a high-content screening system. Finally, angiogenesis in each treatment group was analyzed using the Angiogenesis Analyzer plugin for ImageJ, and statistical analysis was carried out with GraphPad Prism 10.

[4] = significance vs blank control group

In the case of `CC(C)C[C@H](NC(=O)[C@H](NC(=O)CNC(=O)[C@@H]1CCCN1C(=O)[C@H](C)NC(=O)[C@@H]1CCCN1C(=O)[C@H](CC(C)C)NC(=O)[C@H](C)N)[C@H](C)O)C(=O)O` [Compound 7, H-Ala-Leu-Pro-Ala-Pro-Gly-D-Thr-Leu-OH] (H-ALPAPG[dT]L-OH), the Proliferation-promoting results [1] is reported as “** (**p < 0.01)”, the “neurite outgrowth (total neurite length, maximum neurite length, neurite terminals, neurite initiation points)” value (shortened to “neurite outgrowth”) [2] is reported as “tendency to promote neurite outgrowth” and the Longest neurite length [2] is reported as “* (*p < 0.05)”. For the same molecule, the Total neurite length [2] was “* (*p < 0.05)”, the Cell count [3, 4] was “** (**p < 0.01)” and the cell proliferation ([3]; vs normal group, in words) was “only promoted cell proliferation”.
With `CC(C)C[C@H](NC(=O)[C@@H](NC(=O)CNC(=O)[C@H]1CCCN1C(=O)[C@H](C)NC(=O)[C@@H]1CCCN1C(=O)[C@H](CC(C)C)NC(=O)[C@H](C)N)[C@@H](C)O)C(=O)O` [Compound 6, H-Ala-Leu-Pro-Ala-D-Pro-Gly-Thr-Leu-OH] (H-ALPA[dP]GTL-OH) the Proliferation-promoting results [1] was “* (*p < 0.05)”, the “neurite outgrowth” value [2] was “tendency to promote neurite outgrowth” and the Longest neurite length [2] was “* (*p < 0.05)”. The “Neurite initiation points (branches)” value [2] was “* (*p < 0.05)”, the Total neurite length [2] was “* (*p < 0.05)” and the Branch length [3, 4] was “* (*p < 0.05)”. For the same molecule, the Number of intersections [3, 4] was “** (**p < 0.01)” and the angiogenesis-promoting effects ([3]; vs normal group, in words) was “exhibited angiogenesis-promoting effects”.
With “H-LAPAPGTI-OH [Compound 20, H-Leu-Ala-Pro-Ala-Pro-Gly-Thr-Ile-OH]” the Proliferation-promoting results [1] was “* (*p < 0.05)”, the “neurite outgrowth” value [2] was “tendency to promote neurite outgrowth” and the Longest neurite length [2] was “* (*p < 0.05)”. For the same molecule, the “Neurite initiation points (branches)” value [2] was “* (*p < 0.05)”, the “mean fluorescence intensity of the neuronal marker protein βIII-tubulin” value (shortened to “mean fluorescence intensity”) [2] was “tendency to enhance” and the Number of intersections [3, 4] was “* (*p < 0.05)”. The Branch length ([3]; vs normal group, in words) was “no significant effects” and the number of junctions ([3]; vs normal group, in words) was “promoting effects”.
In the case of “Ac-ALPAPGTL-NH2 [Compound 11, Ac-Ala-Leu-Pro-Ala-Pro-Gly-Thr-Leu-NH2]”, the Proliferation-promoting results [1] is reported as “** (**p < 0.01)”, the “number of BrdU positive cells” value [1] is reported as “significant increase” and the “neurite outgrowth” value [2] is reported as “promote neurite outgrowth”. For the same molecule, the Longest neurite length [2] was “** (**p < 0.01)”, the “Neurite initiation points (branches)” value [2] was “*** (***p < 0.001)” and the “Number of neurite terminals” value [2] was “** (**p < 0.01)”. For the same molecule, the Total neurite length [2] was “*** (***p < 0.001)”, the Branch length [3, 4] was “* (*p < 0.05)” and the Number of intersections [3, 4] was “* (*p < 0.05)”. The angiogenesis-promoting effects ([3]; vs normal group, in words) was “exhibited angiogenesis-promoting effects”.
For “H-ALPAPGAL-OH [Compound 18, H-Ala-Leu-Pro-Ala-Pro-Gly-Ala-Leu-OH]”, the Proliferation-promoting results [1] was “*** (***p < 0.001)”, the Branch length [3, 4] was “* (*p < 0.05)” and the Cell count [3, 4] was “* (*p < 0.05)”. For the same molecule, the Number of intersections [3, 4] was “* (*p < 0.05)” and the angiogenesis-promoting effects ([3]; vs normal group, in words) was “exhibited angiogenesis-promoting effects”.
In the case of “H-LPAPGT-OH [Compound 32, H-Leu-Pro-Ala-Pro-Gly-Thr-OH]”, the Proliferation-promoting results [1] is reported as “* (*p < 0.05)”, the “number of BrdU positive cells” value [1] is reported as “significant increase” and the Branch length [3, 4] is reported as “* (*p < 0.05)”. For the same molecule, the Cell count [3, 4] was “** (**p < 0.01)”.
For `CC(C)C[C@H](NC(=O)[C@@H](NC(=O)CNC(=O)[C@@H]1CCCN1C(=O)[C@H](C)NC(=O)[C@@H]1CCCN1C(=O)[C@@H](CC(C)C)NC(=O)[C@H](C)N)[C@@H](C)O)C(=O)O` [Compound 3, H-Ala-D-Leu-Pro-Ala-Pro-Gly-Thr-Leu-OH] (H-A[dL]PAPGTL-OH), the “number of BrdU positive cells” value [1] was “tendency to increase”, the Longest neurite length [2] was “** (**p < 0.01)” and the “Neurite initiation points (branches)” value [2] was “* (*p < 0.05)”. The “Number of neurite terminals” value [2] was “* (*p < 0.05)”, the Total neurite length [2] was “** (**p < 0.01)” and the “mean fluorescence intensity” value [2] was “significant increase”. For the same molecule, the “differentiation of NSCs into neuronal cells” value ([2]; conclusion based on the results of the two analytical methods) was “promote the differentiation of NSCs into neuronal cells with stable effects”, the Average fluorescence intensity [2] was “* (*p < 0.05)” and the Cell count [3, 4] was “* (*p < 0.05)”. For the same molecule, the cell proliferation ([3]; vs normal group, in words) was “only promoted cell proliferation”.
“H-LAPAPGTL-OH [Compound 19, H-Leu-Ala-Pro-Ala-Pro-Gly-Thr-Leu-OH]” was tested, and the Proliferation-promoting results [1] was “** (**p < 0.01)”, the Branch length [3, 4] was “* (*p < 0.05)” and the Number of intersections [3, 4] was “* (*p < 0.05)”. For the same molecule, the angiogenesis-promoting effects ([3]; vs normal group, in words) was “exhibited angiogenesis-promoting effects”.
For “H-ALPAPGTL-NH2 [Compound 10, H-Ala-Leu-Pro-Ala-Pro-Gly-Thr-Leu-NH2]”, the Proliferation-promoting results [1] was “** (**p < 0.01)”, the “number of BrdU positive cells” value [1] was “significant increase” and the “neurite outgrowth” value [2] was “tendency to promote neurite outgrowth”. The “Number of neurite terminals” value [2] was “** (**p < 0.01)”, the Total neurite length [2] was “* (*p < 0.05)” and the “mean fluorescence intensity” value [2] was “tendency to enhance”. The Cell count [3, 4] was “* (*p < 0.05)” and the cell proliferation ([3]; vs normal group, in words) was “only promoted cell proliferation”.
For “H-AAPAPGTL-OH [Compound 16, H-Ala-Ala-Pro-Ala-Pro-Gly-Thr-Leu-OH]”, the Proliferation-promoting results [1] was “* (*p < 0.05)”, the “mean fluorescence intensity” value [2] was “significant increase” and the Average fluorescence intensity [2] was “* (*p < 0.05)”.
For `C[C@H](N)C(=O)N1CCC[C@H]1C(=O)NCC(=O)N[C@H](C(=O)O)[C@@H](C)O` [Compound 37, H-Ala-Pro-Gly-Thr-OH] (H-APGT-OH), the Proliferation-promoting results [1] was “* (*p < 0.05)” and the “number of BrdU positive cells” value [1] was “significant increase”.
`CC(C)C[C@H](NC(=O)[C@H](C)N)C(=O)N1CCC[C@H]1C(=O)N[C@@H](C)C(=O)N1CCC[C@H]1C(=O)NCC(=O)N[C@H](C(=O)N[C@H](CC(C)C)C(=O)O)[C@@H](C)O` [Compound 8, H-Ala-Leu-Pro-Ala-Pro-Gly-Thr-D-Leu-OH] (H-ALPAPGT[dL]-OH) was tested, and the Proliferation-promoting results [1] was “* (*p < 0.05)”, the Branch length [3, 4] was “** (**p < 0.01)” and the Number of intersections [3, 4] was “* (*p < 0.05)”. The angiogenesis-promoting effects ([3]; vs normal group, in words) was “exhibited angiogenesis-promoting effects”.
`CC(=O)N[C@@H](C)C(=O)N[C@@H](CC(C)C)C(=O)N1CCC[C@H]1C(=O)N[C@H](C)C(=O)N1CCC[C@H]1C(=O)NCC(=O)N[C@H](C(=O)N[C@@H](CC(C)C)C(N)=O)[C@@H](C)O` [Compound 42, Ac-Ala-Leu-Pro-D-Ala-Pro-Gly-Thr-Leu-NH2] (Ac-ALP[dA]PGTL-NH2) was tested, and the “mean fluorescence intensity” value [2] was “significant increase”, the Average fluorescence intensity [2] was “* (*p < 0.05)” and the Branch length [3, 4] was “* (*p < 0.05)”. For the same molecule, the Cell count [3, 4] was “* (*p < 0.05)”, the Branch length ([3]; vs normal group, in words) was “promoting effects” and the number of junctions ([3]; vs normal group, in words) was “no significant effects”.
With “H-QLPAPGTLQHF-OH [Compound 25, H-Gln-Leu-Pro-Ala-Pro-Gly-Thr-Leu-Gln-His-Phe-OH]” the “mean fluorescence intensity” value [2] was “significant increase”, the Average fluorescence intensity [2] was “* (*p < 0.05)” and the Cell count [3, 4] was “** (**p < 0.01)”. The cell proliferation ([3]; vs normal group, in words) was “only promoted cell proliferation”.
For `CC(C)C[C@H](NC(=O)[C@@H](NC(=O)CNC(=O)[C@@H]1CCCN1)[C@@H](C)O)C(=O)O` [Compound 28, H-Pro-Gly-Thr-Leu-OH] (H-PGTL-OH), the Proliferation-promoting results [1] was “* (*p < 0.05)”, the “number of BrdU positive cells” value [1] was “significant increase” and the “neurite outgrowth” value [2] was “tendency to promote neurite outgrowth”. The “Number of neurite terminals” value [2] was “* (*p < 0.05)” and the Total neurite length [2] was “** (**p < 0.01)”.
